Data reported in patent US20090176891A1, “DENTAL COMPOSITION AND METHOD OF USE” (priority 2007, published 2009).
Like-named read-outs stand apart in the source and are kept apart here.

Key:
[1] = tested on: common bacteria associated with failed root canal therapy; test: Drug efficacy: zones of inhibition on agar plates; assay type: cell-based
Description: FIG. 6 is graph showing the antimicrobial efficacy of various dose strengths of CHX on bacterial growth on agar plates. The efficacy of the eluted amounts of CHX was tested to evaluate anti-microbial activity at various dose strengths compared to a positive control (Ampicillin). This pilot study was done to obtain a range of CHX elution amounts by weight required to kill common bacteria associated with failed root canal therapy.

[2] = species not given; cited from earlier work
[3] = tested on: RAT; conditions: cited from earlier work

Compound: CC1(C)S[C@@H]2[C@H](NC(=O)[C@H](N)c3ccccc3)C(=O)N2[C@H]1C(=O)O [Ampicillin]
- zone of inhibition at 10000 µg/disc ([1]; 10 mg, positive control): 14.5 mm

Compound: [H]/N=C(\N/C(=N/[H])NCCCCCCNC(=N)NC(=N)Nc1ccc(Cl)cc1)Nc1ccc(Cl)cc1 [CHX, chlorohexidine]
- antimicrobial effect ([1]; 4 μg, compared with water (negative control)): some antimicrobial effect can be seen
- zones of inhibition compared with Ampicillin ([1]; 31 to 250 μg): equal to or better than that of Ampicillin
- zone of inhibition at 0.5 µg/disc ([1]; dose 0.5 μg): 0 mm
- zone of inhibition at 1 µg/disc ([1]; dose 1 μg): 0 mm
- zone of inhibition at 2 µg/disc ([1]; dose 2 μg): 0 mm
- zone of inhibition at 4 µg/disc ([1]; dose 4 μg): 7 mm
- zone of inhibition at 7.8 µg/disc ([1]; dose 7.8 μg): 9 mm
- zone of inhibition at 15.6 µg/disc ([1]; dose 15.6 μg): 12.3 mm
- zone of inhibition at 31.25 µg/disc ([1]; dose 31.25 μg): 14.3 mm
- zone of inhibition at 62.5 µg/disc ([1]; dose 62.5 μg): 16.7 mm
- zone of inhibition at 125 µg/disc ([1]; dose 125 μg): 16.3 mm
- zone of inhibition at 250 µg/disc ([1]; dose 250 μg): 17.3 mm
- LD50 [2]: 2000 mg/kg

Compound: [Cl-].c1ccc([I+]c2ccccc2)cc1 [I5, Diphenyliodonium chloride]
- LD50 [2]: 60 mg/kg

Compound: C=C(C)C(=O)OCCN(C)C [I4, N,N-Dimethylaminoethyl Methacrylate]
- LD50 ([3]; RAT ORAL): 1751 mg/kg

Compound: C=C(C)C(=O)OCCO [M5, hydroxyl ethyl methacrylate]
- LD50 [2]: 4680 mg/kg

Compound: C=C(C)C(=O)OCC(O)COc1ccc(C(C)(C)c2ccc(OCC(O)COC(=O)C(=C)C)cc2)cc1 (centres unmarked) [M3, 2,2-bis[p-(2-hydroxy-3-methacryloxypropoxy)phenyl]propane]
- LD50 ([3]; RAT): > 5000 mg/kg

Compound: CCOC(=O)c1ccc(N(C)C)cc1 [I3, Ethyl-4-N,N-dimethylaminobenzoate]
- LD50 ([3]; RAT): 2000 mg/kg

Compound: C=C(C)C(=O)OCCOCCOCCOC(=O)C(=C)C [M4, triethylene glycol dimethacrylate]
- LD50 [2]: 10750 mg/kg
